Test results from article PMC12036875, “Mitochondria-targeting natural product rhein conjugated with dichloroacetate as the dual inhibitor of glycolysis and oxidative phosphorylation to off energize cancer cells and induce ROS storm” (Theranostics, 2025).
Where two headings read alike, the source gives them in different places.

Key:
4T1 tumor tissue = experiment: IHC of pPDHA1-Ser293 and IF of HMGB1 in tumor slices; format: in vivo, Balb/c mice; details: 20 mg/kg oral, 24 days; for pPDHA1-Ser293 protein level in tumor tissue (IHC): vs vehicle
Excerpt: The TAMs are the prominent components in the TEM and play a critical role in tumoral immunosuppression. Repolarization of protumor M2 phenotype into antitumor M1 phenotype is promising for malignant tumors. On the one hand, as a key metabolite fueling M2 polarization, lactate is very important in modulating the polarization state of macrophages within the tumor microenvironment. To verify that Rhein-DCA conjugate reprogrammed the metabolism of cells on solid tumors, we analyzed the expression of pPDHA1-Ser^293 protein in tumor tissues with immunohistochemical staining (IHC) (Figure 7A). […] The end product lactate of glycolysis decreased 20%, consistent with DCA's ability to reverse the Warburg effect. […] On the other hand, the ICD behavior of cancer cells also can activate TAMs into M1 polarization. Then, the release of HMGB1 was evaluated to assess the ICD effect in vivo with immunofluorescence staining (IF) (Figure 7C).
After 24 days, the mice were euthanized, and then tumors were excised to photographing and weighting. The tumors in each group were performed with TUNEL (green fluorescence) and H&E assay. In addition, immunohistochemical staining was conducted on the tumor tissue to determine the pPDHA1-Ser^293 protein level. Besides, immunofluorescence staining was used to detect the expression of HMGB1 protein in the tumor.

293T cells = experiment: MTT cytotoxicity assay, normal cells; format: cell-based; details: Homo sapiens, HEK-293T, read-out: IC50 293T
Description: (§1) The cytotoxicity of Rhein-DCA conjugate was performed on various cancer cell lines, including breast cancer (4T1 and MCF-7), cervical cancer (HeLa), and colorectal carcinoma (CT26) via 3-(4,5)-dimethylthiahiazo(-z-y1)-3,5-di-phenytetrazoliumromide (MTT) assay. […] Moreover, the cytotoxicity of these compounds (rhein, DCA, R + D and Rhein-DCA) for normal cells (293T) was lower than that of those tested cancer cells.
Mouse breast cancer 4T1 cells and Mouse colorectal carcinoma CT26 cells were purchased from Haixing Biosciences Co., Ltd (Jiangsu, P. R. China), and cultured in complete RPMI-1640 medium supplemented with 10% FBS and 1% Penicillin / Streptomycin in a cell incubator (37 °C in 95% air and 5% CO2 atmosphere). Human breast cancer MCF-7 cells, Human cervical carcinoma HeLa cells and Human embryonic kidney 293T cells were obtained from the China Center for Type Culture Collection (CCTCC). MCF-7 and HeLa cells were cultured in DMEM medium containing 10% FBS and 1% Penicillin / Streptomycin and then cultured in a cell incubator (37 °C in 95% air and 5% CO2 atmosphere).
The cytotoxicity of rhein, DCA, the mixture of rhein and DCA (R + D) and Rhein-DCA conjugate was evaluated on HeLa, MCF-7, CT26, 4T1 and 293T cell lines by MTT assay. Cells were seeded in 96-well plates at a density of 3 × 10^3 cells per well in the corresponding complete culture medium and cultured for 24 h. Then cells were incubated with 200 μL fresh medium containing the respective desired concentrations of rhein, DCA, R + D (with the concentrations being 100, 66.7, 44.4, 29.6, 19.8, 13.2, 8.8, 5.9, 3.9, 2.6, 1.7 and 1.2 μM, respectively) and Rhein-DCA conjugate (with the concentrations being 29.6, 19.8, 13.2, 8.8, 5.9, 3.9, 2.6, 1.7, 1.2, 0.8, 0.5 and 0.3 μM, respectively). After 72 h of incubation, 20 μL of MTT solution (5 mg/mL) was added to each well and the plates were cultured for another 4 h. The medium was carefully removed, and 110 μL of DMSO was added into per well to dissolve the formazan. The absorption densities at 590 nm were recorded with microplate reader. […]

[1] = test system: 4T1, MCF-7, HeLa and CT26 cell lines; experiment: MTT cytotoxicity assay, statement over all tested cancer cell lines; format: cell-based; details: for IC50: 72 h, read-out: IC50 in all tested cell lines
Description: as §1
The cytotoxicity of rhein, DCA, the mixture of rhein and DCA (R + D) and Rhein-DCA conjugate was evaluated on HeLa, MCF-7, CT26, 4T1 and 293T cell lines by MTT assay. Cells were seeded in 96-well plates at a density of 3 × 10^3 cells per well in the corresponding complete culture medium and cultured for 24 h. Then cells were incubated with 200 μL fresh medium containing the respective desired concentrations of rhein, DCA, R + D (with the concentrations being 100, 66.7, 44.4, 29.6, 19.8, 13.2, 8.8, 5.9, 3.9, 2.6, 1.7 and 1.2 μM, respectively) and Rhein-DCA conjugate (with the concentrations being 29.6, 19.8, 13.2, 8.8, 5.9, 3.9, 2.6, 1.7, 1.2, 0.8, 0.5 and 0.3 μM, respectively). After 72 h of incubation, 20 μL of MTT solution (5 mg/mL) was added to each well and the plates were cultured for another 4 h. The medium was carefully removed, and 110 μL of DMSO was added into per well to dissolve the formazan. The absorption densities at 590 nm were recorded with microplate reader. The quoted IC50 values were presented as the mean ± standard deviation.

[2] = test system: phospho-Ser^293 PDHA1 protein in 4T1 cells; experiment: Western blot of phospho-Ser293 PDHA1; format: cell-based, Mouse; details: 6.25 μM, 24 h, vs control
Description: Then, the phospho-Ser^293 PDHA1 protein level in 4T1 cells, which is regulated by PDK1, was further analyzed with western blot (Figure 2C). […] The conjugate successfully altered glycolysis of 4T1 cells via PDK-PDH axis.
4T1 cells were seeded in 6-well plates at a density of 20 × 10^4 cells per well and cultured for 24 h. Then the cells were treated with rhein, DCA, R + D and Rhein-DCA conjugate, each at a concentration of 6.25 μM for 24 h. Cells were washed twice with PBS and lysed by RIPA total protein extraction solution containing multiple protease inhibitors for 30 min while being maintained on ice. The lysate was centrifuged at 9391 G for 10 min at 4 °C to obtain the total protein solution. The concentrations of total protein were determined with BCA Protein Assay Kit. The protein was further denatured with 5 × protein loading buffer at 100 °C for 15 min. Sodium dodecyl sulfate polyacrylamide gel electrophoresis was conducted to separate the protein and transferred it to PVDF membranes. The PVDF membranes were blocked with 5% skim milk for 30 min at room temperature and incubated with indicated primary antibodies: Anti-Cytochrome C Rabbit pAb (1:1000); Anti-β-actin Rabbit pAb (1:1000); or Anti-PDHA1 Rabbit mAb (phosphoS^293) (1:1000) overnight at 4 °C. The membranes were incubated with HRP conjugated Goat Anti-Rabbit IgG (H+L) (1:5000), respectively, for 30 min at room temperature and then analyzed by chemiluminescence (Clinx,6100).

[3] = 72 h treatment, MTT, normal cells, mean ± S.D., n = 3

Row | Compound | HMGB1 localisation in tumor slices (IF) (4T1 tumor tissue) | pPDHA1-Ser293 protein level in tumor tissue (IHC) (4T1 tumor tissue) | IC50 (293T cells; 72 h) [µM] | IC50 [1] [µM] | phospho-Ser293 PDHA1 protein level (western blot) [2] | IC50 (293T cells; [3]) [µM] | IC50 ([1]; MTT, summary over the cell lines) [µM] | increase of cytotoxicity in comparison with individual rhein, DCA and their combination ([1]; all four cancer cell lines)
1 | O=C(O)C(Cl)Cl [DCA, Dichloroacetate] | almost all of HMGB1 overlapped with nucleus | obvious down-expression | > 100 | > 100 | slightly downregulation | – | – | –
2 | O=C(O)c1cc(O)c2c(c1)C(=O)c1cccc(O)c1C2=O [Rhein, 4,5-dihydroxyanthraquinone-2-carboxylic acid] | almost all of HMGB1 overlapped with nucleus | did not significantly alter | – | – | no obvious down-regulated trend | 126 ± 13.6 | 40 to 80 | –
3 | O=C(OCCOC(=O)C(Cl)Cl)c1cc(O)c2c(c1)C(=O)c1cccc(O)c1C2=O [Rhein-DCA] | mostly appeared outside the nucleus with weak intensity | down-expression | – | – | lowest expression | 11.7 | – | at least 10 fold
